Test results as given in patent publication US12234236B1, “GLP-1R agonist and therapeutic method thereof” (Ascletis Pharma (China) Co., Limited, priority 2023, dated 2025).

What was measured:
hGLP-1R = molecular target: T1, hGLP-1R (Homo sapiens, UniProt P43220); experiment: hGLP-1R agonist cAMP stimulation assay; assay type: cell-based; settings: Flp-In-293-GLP1R cells, 30 minutes at 37° C.
T1 construct: expressed in transfected cells; host or cells: Flp-In-293 (HEK293-derived) cells carrying GLP1R
Experimental: 1. Cell Line and Reagent Preparation
• 1) Cell line: Flp-In-293-GLP1R • 2) Medium: DMEM+10% FBS+1×Penicillin-Streptomycin+200 μg/mL HB • 3) Test buffer: 1×HBSS+20 mM HEPES+0.1% BSA+500 μM IBMX 2. Agonist Test • a) Flpin-293-GLP1R cells were incubated in a 384-well assay plate (6007680-50, PB) using a complete medium with 2,000 cells per well. • b) Prepared a 4× […] working solution with assay buffer. • c) Added 5 μL of 4× Compound Working Solution to the cell plate and incubated at 37° C. for 30 minutes. • d) Diluted the Eu-cAMP tracer (1/50) with lysis buffer and added 10 μl/well to the assay plate. • e) Diluted Ulight-anti-cAMP (1/150) with lysis buffer and added 10 μl/well to the assay plate. • f) The assay plate was incubated at constant temperature for 1 hour. • g) Read the plate on Envision 2105 plate reader at […]. 3.

[1] = Single-dose oral administration pharmacokinetic study in SD rats; assay type: in vivo; settings: Sprague-Dawley, rat, whole blood, 5 mg/kg; for AUC(0-t): read-out: AUC0-48h
Experimental: 2. Single-Dose Oral Administration Pharmacokinetic (PK) Studies in Sprague-Dawley (SD) Rats
Pharmacokinetic (PK) studies after a single-dose oral administration for compounds. Protocol: Animals: Sprague-Dawley (SD) rats; Solvent: Solutol: PEG400: Tween80: Saline=10:40:2:48 (v/v/v/v); Dose: 5 mg/kg; Dosing concentration: 0.5 mg/mL in the solvent; Dosing volume: 10 mL/kg; Blood sampling time points: pre-dose, 0.25 h, 0.5 h, 1 h, 2 h, 3 h, 4 h, 8 h, 12 h, 18, 24 h, 32 h, 40 h, 48 h. Sample Collection: At each time point, approximately 0.15 mL of blood was drawn from the jugular vein sinus, and the collected whole blood was placed in an anticoagulant tube containing EDTA-K2. After collecting blood samples, they were processed with protein precipitation and then analyzed by LC-MS/MS.

[2] = Single-dose subcutaneous injection pharmacokinetic study in SD rats; assay type: in vivo; settings: Sprague-Dawley, rat, blood, sc, male SD rats, 30 mg/kg, vehicle 80% MCT + 20% benzyl alcohol, read-out: AUC0-696h
Experimental: Pharmacokinetic Studies in Sprague-Dawley (SD) Rats
1. Single-Dose Subcutaneous Injection Pharmacokinetic Studies Sprague-Dawley (SD) Rats
Pharmacokinetic (PK) studies after a single-dose subcutaneous injection for compounds: 1, 13, 18, 19, 20, 21 and orforglipron. Protocol: Animals: Male Sprague-Dawley (SD) rats; Vehicle: 80% MCT (Medium-Chain Triglycerides)+20% benzyl alcohol; Dose: 30 mg/kg in the vehicle; Dosing concentration: 30 mg/mL; Dosing volume: 1 mL/kg; Administration site: Subcutaneous injection at the back of the animal. Blood sampling time points: pre-dose, 1 h, 2 h, 8 h, 24 h, 48 h, 72 h, 96 h, 120 h, 144 h, 216 h, 312 h, 480 h, 696 h. Blood samples were collected, and the blood samples were analyzed by LC-MS/MS.

T1 sequence (P43220 24-463): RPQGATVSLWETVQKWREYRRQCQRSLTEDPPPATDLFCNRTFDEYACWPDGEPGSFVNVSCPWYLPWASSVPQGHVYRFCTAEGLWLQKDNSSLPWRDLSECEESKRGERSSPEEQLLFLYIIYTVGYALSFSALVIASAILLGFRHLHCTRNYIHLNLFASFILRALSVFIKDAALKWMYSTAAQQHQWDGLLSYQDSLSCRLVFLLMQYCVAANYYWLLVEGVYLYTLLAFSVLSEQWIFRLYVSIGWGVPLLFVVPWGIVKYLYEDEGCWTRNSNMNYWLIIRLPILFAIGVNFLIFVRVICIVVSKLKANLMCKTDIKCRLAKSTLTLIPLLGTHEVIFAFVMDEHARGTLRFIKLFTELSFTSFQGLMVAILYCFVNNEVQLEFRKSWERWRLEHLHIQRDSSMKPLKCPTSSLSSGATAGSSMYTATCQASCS

Row | Structure (SMILES) | EC50 (hGLP-1R) [nM] | Cmax [1] [ng/mL] | AUC(0-t) [1] [ng·h/mL] | AUC(0-t) [2] [ng·h/mL]
1 | Cc1cc(-n2nc3c(c2-n2ccn(-c4ccc5c(cnn5C5CC5)c4F)c2=O)[C@H](C)N(C(=O)c2cc4cc(C5CCOCC5)cnc4n2[C@@]2(c4noc(=O)[nH]4)C[C@@H]2C)CC3)cc(C)c1F [Compound 70] | 0.064 |  |  | 
2 | CCOP(=O)(Cc1ccc(-n2ccn(-c3c4c(nn3-c3cc(C)c(F)c(C)c3)CCN(C(=O)c3cc5cc(C6CCOCC6)ccc5n3[C@@]3(c5noc(=O)[nH]5)C[C@@H]3C)[C@H]4C)c2=O)cc1)OCC [Compound 84] | 0.08 |  |  | 
3 | CCP(=O)(CC)Cc1ccc(-n2ccn(-c3c4c(nn3-c3cc(C)c(F)c(C)c3)CCN(C(=O)c3cc5cc(C6CCOCC6)ccc5n3[C@@]3(c5noc(=O)[nH]5)C[C@@H]3C)[C@H]4C)c2=O)cc1 [Compound 80] | 0.038 |  |  | 
4 | Cc1cc(-n2nc3c(c2-n2ccn(-c4ccc5c(cnn5C5CC5)c4F)c2=O)[C@H](C)N(C(=O)c2cc4cc(C5CCOCC5)ncc4n2[C@@]2(c4noc(=O)[nH]4)C[C@@H]2C)CC3)cc(C)c1F [Compound 66] | 0.014 |  |  | 
5 | Cc1cc(-n2nc3c(c2-n2ccn(-c4ccc5c(c4)CCC(=O)N5C)c2=O)[C@H](C)N(C(=O)c2cc4cc(C5CCOCC5)ccc4n2[C@@]2(c4noc(=O)[nH]4)C[C@@H]2C)CC3)cc(C)c1F [Compound 78] | 0.012 |  |  | 
6 | Cc1cc(-n2nc3c(c2-n2ccn(-c4ccc5c(c4)CS(=O)(=O)N5C)c2=O)[C@H](C)N(C(=O)c2cc4cc(C5CCOCC5)ccc4n2[C@@]2(c4noc(=O)[nH]4)C[C@@H]2C)CC3)cc(C)c1F [Compound 76] | 0.019 |  |  | 
7 | Cc1cc(-n2nc3c(c2-n2ccn(-c4ccc5c(c4)NCCS5(=O)=O)c2=O)[C@H](C)N(C(=O)c2cc4cc(C5CCOCC5)ccc4n2[C@@]2(c4noc(=O)[nH]4)C[C@@H]2C)CC3)cc(C)c1F [Compound 55] | 0.15 |  |  | 
8 | Cc1cc(-n2nc3c(c2-n2ccn(-c4ccc(CP5(=O)CCCC5)cc4)c2=O)[C@H](C)N(C(=O)c2cc4cc(C5CCOCC5)ccc4n2[C@@]2(c4noc(=O)[nH]4)C[C@@H]2C)CC3)cc(C)c1F [Compound 82] | 0.011 |  |  | 
9 | Cc1cc(-n2nc3c(c2-n2ccn(-c4ccc5c(c4F)CS(=O)(=O)N5)c2=O)[C@H](C)N(C(=O)c2cc4cc(C5CCOCC5)ccc4n2[C@@]2(c4noc(=O)[nH]4)C[C@@H]2C)CC3)cc(C)c1F [Compound 37] | 0.06 |  |  | 
10 | Cc1cc(-n2nc3c(c2-n2ccn(-c4ccc5c(cnn5C5CC5)c4F)c2=O)[C@H](C)N(C(=O)c2cc4cc([C@H]5CCOC(C)(C)C5)ccc4n2[C@@]2(c4noc(=O)[nH]4)C[C@@H]2C)CC3)cc(C)c1F [Compound 1] | 0.094 |  |  | 60300
11 | Cc1cc(-n2nc3c(c2-n2ccn(-c4ccc(NS(C)(=O)=O)cc4)c2=O)C2CCC(C3)N2C(=O)c2cc3nc(C4CCOCC4)ccc3n2[C@@]2(c3noc(=O)[nH]3)C[C@@H]2C)cc(C)c1F (stereo partly drawn) [Compound 24] | 0.868 |  |  | 

Continued, values first:

Row | EC50 (hGLP-1R) [nM] | Cmax [1] [ng/mL] | AUC(0-t) [1] [ng·h/mL] | AUC(0-t) [2] [ng·h/mL] | Structure (SMILES)
12 | 0.028 |  |  |  | Cc1cc(-n2nc3c(c2-n2ccn(-c4ccc(CP(C)(C)=O)cc4)c2=O)[C@H](C)N(C(=O)c2cc4cc(C5CCOCC5)ccc4n2[C@@]2(c4noc(=O)[nH]4)C[C@@H]2C)CC3)cc(C)c1F [Compound 50]
13 | 0.022 |  |  |  | Cc1cc(-n2nc3c(c2-n2ccn(-c4ccc5c(c4)oc(=O)n5C)c2=O)[C@H](C)N(C(=O)c2cc4cc(C5CCOCC5)ccc4n2[C@@]2(c4noc(=O)[nH]4)C[C@@H]2C)CC3)cc(C)c1F [Compound 77]
14 | 0.042 |  |  |  | Cc1cc(-n2nc3c(c2-n2ccn(-c4ccc(CP(=O)(C5CC5)C5CC5)cc4)c2=O)[C@H](C)N(C(=O)c2cc4cc(C5CCOCC5)ccc4n2[C@@]2(c4noc(=O)[nH]4)C[C@@H]2C)CC3)cc(C)c1F [Compound 81]
15 | 0.063 |  |  |  | Cc1cc(-n2nc3c(c2-n2ccn(-c4ccc5c(c4F)COB5O)c2=O)[C@H](C)N(C(=O)c2cc4cc(C5CCOC(C)(C)C5)ccc4n2[C@@]2(c4noc(=O)[nH]4)C[C@@H]2C)CC3)cc(C)c1F (stereo partly drawn) [Compound 29]
16 | 0.171 |  |  |  | Cc1cc(-n2nc3c(c2-n2ccn(-c4ccc5c(c4F)COB5O)c2=O)[C@H](C)N(C(=O)c2cc4cc(C5CCOCC5)ccc4n2[C@@]2(c4noc(=O)[nH]4)C[C@@H]2C)CC3)cc(C)c1F [Compound 79]
17 | 0.018 | 1900 | 17000 | 77700 | Cc1cc(-n2nc3c(c2-n2ccn(-c4ccc5c(cnn5C5CCC5)c4F)c2=O)[C@H](C)N(C(=O)c2cc4cc(C5CCOCC5)ccc4n2[C@@]2(c4noc(=O)[nH]4)C[C@@H]2C)CC3)cc(C)c1F [Compound 20]
18 |  | 799 | 7220 | 5390 | Cc1cc(-n2nc3c(c2-n2ccn(-c4ccc5c(cnn5C)c4F)c2=O)[C@H](C)N(C(=O)c2cc4cc([C@H]5CCOC(C)(C)C5)ccc4n2[C@@]2(c4noc(=O)[nH]4)C[C@@H]2C)CC3)cc(C)c1F [Orforglipron, orforglipron, reference compound]
19 | 0.092 | 11000 | 71800 |  | Cc1cc(-n2nc3c(c2-n2ccn(-c4ccc5c(cnn5C5CC5)c4F)c2=O)[C@H](C)N(C(=O)c2cc4nc(C5CCOCC5)ccc4n2[C@@]2(c4noc(=O)[nH]4)C[C@@H]2C)CC3)cc(C)c1F [Compound 65]
20 | 0.044 |  |  | 61500 | Cc1cc(-n2nc3c(c2-n2ccn(-c4ccc5c(cnn5CC5CC5)c4F)c2=O)[C@H](C)N(C(=O)c2cc4cc(C5CCOCC5)ccc4n2[C@@]2(c4noc(=O)[nH]4)C[C@@H]2C)CC3)cc(C)c1F [Compound 21]
21 | 0.025 |  |  |  | Cc1cc(-n2nc3c(c2-n2ccn(-c4ccc5c(c4F)CCS(=O)(=O)N5C)c2=O)[C@H](C)N(C(=O)c2cc4cc(C5CCOCC5)ccc4n2[C@@]2(c4noc(=O)[nH]4)C[C@@H]2C)CC3)cc(C)c1F [Compound 35]
22 | 0.012 | 4460 | 60000 | 234000 | Cc1cc(-n2nc3c(c2-n2ccn(-c4ccc5c(cnn5C5CC5)c4F)c2=O)[C@H](C)N(C(=O)c2cc4nc(C5CCOCC5)ccc4n2[C@@]2(c4noc(=O)[nH]4)C[C@@H]2C)CC3)cc(C)c1F (single isomer, unassigned) [Compound 19]
23 | 0.228 |  |  | 23400 | Cc1cc(-n2nc3c(c2-n2ccn(-c4ccc5c(cnn5CC5CC5)c4F)c2=O)[C@H](C)N(C(=O)c2cc4cc(C5CCOC(C)(C)C5)ccc4n2[C@@]2(c4noc(=O)[nH]4)C[C@@H]2C)CC3)cc(C)c1F (stereo partly drawn) [Compound 13]
24 | 0.05 |  |  |  | Cc1cc(-n2nc3c(c2-n2ccn(-c4ccc5c(c4F)CCS(=O)(=O)N5)c2=O)[C@H](C)N(C(=O)c2cc4cc(C5CCOCC5)ccc4n2[C@@]2(c4noc(=O)[nH]4)C[C@@H]2C)CC3)cc(C)c1F [Compound 36]
25 | 0.265 |  |  | 51200 | Cc1cc(-n2nc3c(c2-n2ccn(-c4ccc5c(cnn5CC5CC5)c4F)c2=O)[C@H](C)N(C(=O)c2cc4cc([C@@H]5CCOC(C)(C)C5)ccc4n2[C@@]2(c4noc(=O)[nH]4)C[C@@H]2C)CC3)cc(C)c1F [Compound 18]
